In brackets after ≈: the same amount, converted by molar mass.
What was measured:
Experiment in all cases: in vitro antibacterial evaluation, MIC by broth dilution
Format in all cases: cell-based
[1] = tested on: Streptococcus sp.; conditions: broth dilution, 18 hours at 35° C.; for MIC Streptococcus pneumoniae (ATCC 6301): strain ATCC 6301; for MIC Streptococcus pneumoniae (GC 1894): strain GC 1894; for MIC Streptococcus pyogenes (GC 4563): strain GC 4563; for MIC Streptococcus agalactiae (GC 4564): strain GC 4564; for MIC Streptococcus pneumoniae (GC 4565): strain GC 4565
In short: (§1)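 Broth dilution per NCCLS standard M7-A2 in Muller-Hinton II […], with an inoculum of 5×10^5 CFU/mL and antibiotic spanning 64-0.06 μg/mL. The MIC is the lowest concentration that inhibits growth of the organism.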

[2] = tested on: Staphylococcus sp.; conditions: broth dilution, 18 hours at 35° C.; for MIC Staphylococcus aureus (GC 1131): strain GC 1131
In short: as §1

[3] = tested on: Enterococcus sp.; conditions: broth dilution, 18 hours at 35° C.; for MIC Enterococcus faecalis (ATCC 29212): strain ATCC 29212; for MIC Enterococcus faecalis (GC 2242): strain GC 2242; for MIC Enterococcus faecium (GC 2243): strain GC 2243; for MIC Enterococcus faecalis (GC 2691): strain GC 2691; for MIC Enterococcus faecalis (GC 3059): strain GC 3059; for MIC Enterococcus faecalis (GC 4552): strain GC 4552; for MIC Enterococcus faecalis (GC 4553): strain GC 4553; for MIC Enterococcus faecalis (GC 4554): strain GC 4554; for MIC Enterococcus faecium (GC 4556): strain GC 4556; for MIC Enterococcus faecium (GC 4557): strain GC 4557; for MIC Enterococcus avium (GC 4558): strain GC 4558; for MIC Enterococcus faecalis (GC 6189): strain GC 6189
In short: as §1

[4] = tested on: Escherichia coli
In short: as §1

- MIC Streptococcus pneumoniae (ATCC 6301) ([1]; inoculum 5×10^5 CFU/mL): <0.06 µg/mL
- MIC Streptococcus pneumoniae (GC 1894) ([1]; inoculum 5×10^5 CFU/mL): <0.06 µg/mL
- MIC Streptococcus pyogenes (GC 4563) ([1]; inoculum 5×10^5 CFU/mL): <0.06 µg/mL
- MIC Streptococcus agalactiae (GC 4564) ([1]; inoculum 5×10^5 CFU/mL): <0.06 µg/mL
- MIC Streptococcus pneumoniae (GC 4565) ([1]; inoculum 5×10^5 CFU/mL): <0.06 µg/mL
- MIC Streptococcus pneumoniae (ATCC 6301) [1]: <0.06 µg/mL
- MIC Streptococcus pneumoniae (GC 1894) [1]: <0.06 µg/mL
- MIC Streptococcus pyogenes (GC 4563) [1]: <0.06 µg/mL
- MIC Streptococcus agalactiae (GC 4564) [1]: <0.06 µg/mL
- MIC Streptococcus pneumoniae (GC 4565) [1]: <0.06 µg/mL
- MIC Staphylococcus aureus (GC 1131) ([2]; inoculum 5×10^5 CFU/mL): 8 µg/mL (≈ 5.21 µM)
- MIC Staphylococcus aureus (ATCC 29213) ([2]; strain ATCC 29213): 4 µg/mL (≈ 2.6 µM)
- MIC Staphylococcus aureus (GC 1131) [2]: 8 µg/mL (≈ 5.21 µM)
- MIC Staphylococcus aureus (GC 3051) ([2]; strain GC 3051): 2 µg/mL (≈ 1.3 µM)
- MIC Staphylococcus aureus (GC 3053) ([2]; strain GC 3053): 2 µg/mL (≈ 1.3 µM)
- MIC Staphylococcus aureus (GC 4541) ([2]; strain GC 4541): 8 µg/mL (≈ 5.21 µM)
- MIC Staphylococcus aureus (GC 4542) ([2]; strain GC 4542): 4 µg/mL (≈ 2.6 µM)
- MIC Staphylococcus aureus (GC 4544) ([2]; strain GC 4544): 4 µg/mL (≈ 2.6 µM)
- MIC Staphylococcus aureus (GC 4545) ([2]; strain GC 4545): 4 µg/mL (≈ 2.6 µM)
- MIC Staphylococcus aureus-SMITH (GC 4543) ([2]; strain GC 4543): 4 µg/mL (≈ 2.6 µM)
- MIC Coagulase Negative Staphylococcus (GC 4547) ([2]; strain GC 4547): 4 µg/mL (≈ 2.6 µM)
- MIC Coagulase Negative Staphylococcus (GC 4548) ([2]; strain GC 4548): 2 µg/mL (≈ 1.3 µM)
- MIC Coagulase Negative Staphylococcus (GC 4549) ([2]; strain GC 4549): 4 µg/mL (≈ 2.6 µM)
- MIC Coagulase Negative Staphylococcus (GC 4551) ([2]; strain GC 4551): 4 µg/mL (≈ 2.6 µM)
- MIC Coagulase Negative Staphylococcus (GC 6257) ([2]; strain GC 6257): 2 µg/mL (≈ 1.3 µM)
- MIC Enterococcus faecalis (ATCC 29212) ([3]; inoculum 5×10^5 CFU/mL): 8 µg/mL (≈ 5.21 µM)
- MIC Enterococcus faecalis (GC 2242) ([3]; inoculum 5×10^5 CFU/mL): 8 µg/mL (≈ 5.21 µM)
- MIC Enterococcus faecium (GC 2243) ([3]; inoculum 5×10^5 CFU/mL): 2 µg/mL (≈ 1.3 µM)
- MIC Enterococcus faecalis (GC 2691) ([3]; inoculum 5×10^5 CFU/mL): 2 µg/mL (≈ 1.3 µM)
- MIC Enterococcus faecalis (GC 3059) ([3]; inoculum 5×10^5 CFU/mL): 4 µg/mL (≈ 2.6 µM)
- MIC Enterococcus faecalis (GC 4552) ([3]; inoculum 5×10^5 CFU/mL): 8 µg/mL (≈ 5.21 µM)
- MIC Enterococcus faecalis (GC 4553) ([3]; inoculum 5×10^5 CFU/mL): 4 µg/mL (≈ 2.6 µM)
- MIC Enterococcus faecalis (GC 4554) ([3]; inoculum 5×10^5 CFU/mL): 4 µg/mL (≈ 2.6 µM)
- MIC Enterococcus faecium (GC 4556) ([3]; inoculum 5×10^5 CFU/mL): 8 µg/mL (≈ 5.21 µM)
- MIC Enterococcus faecium (GC 4557) ([3]; inoculum 5×10^5 CFU/mL): 4 µg/mL (≈ 2.6 µM)
- MIC Enterococcus avium (GC 4558) ([3]; inoculum 5×10^5 CFU/mL): 2 µg/mL (≈ 1.3 µM)
- MIC Enterococcus faecalis (GC 6189) ([3]; inoculum 5×10^5 CFU/mL): 2 µg/mL (≈ 1.3 µM)
- MIC Enterococcus faecalis (ATCC 29212) [3]: 8 µg/mL (≈ 5.21 µM)
- MIC Enterococcus faecalis (GC 2242) [3]: 8 µg/mL (≈ 5.21 µM)
- MIC Enterococcus faecium (GC 2243) [3]: 2 µg/mL (≈ 1.3 µM)
- MIC Enterococcus faecalis (GC 2691) [3]: 2 µg/mL (≈ 1.3 µM)
- MIC Enterococcus faecalis (GC 3059) [3]: 4 µg/mL (≈ 2.6 µM)
- MIC Enterococcus faecalis (GC 4552) [3]: 8 µg/mL (≈ 5.21 µM)
- MIC Enterococcus faecalis (GC 4553) [3]: 4 µg/mL (≈ 2.6 µM)
- MIC Enterococcus faecalis (GC 4554) [3]: 4 µg/mL (≈ 2.6 µM)
- MIC Enterococcus faecium (GC 4556) [3]: 8 µg/mL (≈ 5.21 µM)
- MIC Enterococcus faecium (GC 4557) [3]: 4 µg/mL (≈ 2.6 µM)
- MIC Enterococcus avium (GC 4558) [3]: 2 µg/mL (≈ 1.3 µM)
- MIC Enterococcus faecalis (GC 6189) [3]: 2 µg/mL (≈ 1.3 µM)
- MIC Escherichia coli (ATCC 25922) ([4]; strain ATCC 25922, 18 hours at 35° C.): >64 µg/mL
- MIC Escherichia coli (GC 4559) ([4]; strain GC 4559, 18 hours at 35° C.): >64 µg/mL
- MIC Escherichia coli (GC 4560) ([4]; strain GC 4560, 18 hours at 35° C.): 4 µg/mL (≈ 2.6 µM)
SMILES: CC(C)=CCCC(C)=CCOc1ccc(C2OCC3OC(OC4C(CO)OC(Oc5ccc(CC6NC(=O)C(C(C)c7ccccc7)NC(=O)CNC(=O)C(CO)NC(=O)C(C(O)C7CNC(=N)N7C7OC(CO)C(O)C(O)C7O)NC(=O)C(C(O)C7CNC(=N)N7)NC6=O)cc5)C(O)C4O)C(O)C(O)C3O2)cc1 (centres unmarked) [Example 183]
- MIC Staphylococcus haemolyticus (GC 4546) ([2]; strain GC 4546): 8 µg/mL (≈ 5.21 µM)
